According to ChEMBL document CHEMBL1201862, “PubChem BioAssay data set” (2004):
The source made the active and inactive calls.

Legend:
[1] = biological target: Photoreceptor-specific nuclear receptor (Homo sapiens, UniProt Q9Y5X4); format: functional, cell-based;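 note: CHO-S cells with Gal4-NCOR and VP16-NR2E3 two-hybrid luciferase reporter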
[2] = biological target: T1, Corticotropin-releasing factor receptor 2/Corticotropin-releasing factor-binding protein (Homo sapiens, UniProt P24387+Q13324); experiment: Dose Response confirmation of uHTS hits for small molecule antagonists of the CRF-binding protein and CRF-R2 receptor complex.; format: functional; settings: read-out: IC50_Mean
T1 sequence (Q13324 whole entry): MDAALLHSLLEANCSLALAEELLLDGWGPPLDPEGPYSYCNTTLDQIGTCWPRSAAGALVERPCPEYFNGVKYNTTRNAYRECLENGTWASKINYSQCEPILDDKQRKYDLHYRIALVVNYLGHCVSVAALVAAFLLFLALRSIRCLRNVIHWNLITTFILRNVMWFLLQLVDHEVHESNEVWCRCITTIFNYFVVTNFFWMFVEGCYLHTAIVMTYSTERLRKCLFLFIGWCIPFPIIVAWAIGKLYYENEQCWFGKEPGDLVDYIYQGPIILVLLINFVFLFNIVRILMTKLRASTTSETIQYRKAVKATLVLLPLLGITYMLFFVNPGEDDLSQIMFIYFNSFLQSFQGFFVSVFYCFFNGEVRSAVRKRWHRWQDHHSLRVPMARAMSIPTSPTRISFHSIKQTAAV
T1 sequence (P24387 whole entry): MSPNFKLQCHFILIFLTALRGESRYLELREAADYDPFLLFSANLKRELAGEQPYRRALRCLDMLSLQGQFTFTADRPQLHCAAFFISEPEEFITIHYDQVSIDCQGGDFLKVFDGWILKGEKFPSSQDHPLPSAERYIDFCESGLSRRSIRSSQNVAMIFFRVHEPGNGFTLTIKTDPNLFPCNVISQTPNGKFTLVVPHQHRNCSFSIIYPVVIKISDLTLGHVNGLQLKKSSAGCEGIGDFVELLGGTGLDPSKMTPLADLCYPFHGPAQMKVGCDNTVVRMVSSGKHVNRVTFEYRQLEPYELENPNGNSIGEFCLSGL

[3] = biological target: T1, Corticotropin-releasing factor receptor 2/Corticotropin-releasing factor-binding protein; experiment: activators of CRF receptor 2 with binding protein – uHTS hits, confirmation (AID 602473); format: functional; settings: read-out: EC50_Mean
[4] = blockers of CRF-binding protein–CRF-R2 complex – cell-based, uHTS hits, 384-well, dose response (AID 651639); format: functional, Homo sapiens; settings: read-out: IC50_Mean
[5] = nonselective StAR promoter luciferase inhibitors – cell-based, luminescence, luciferase reporter, counter-screen for LRH-1 inverse agonist project, dose response (AID 651969); format: functional
[6] = biological target: Nuclear receptor subfamily 5 group A member 2 (Homo sapiens, UniProt O00482); format: functional, cell-based;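 note: HEK293T cells transfected with LRH-1 and a StAR promoter luciferase reporter; potency for inhibitors that lower LRH-1 driven reporter light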
Nuclear receptor subfamily 5 group A member 2, sequence (O00482 whole entry): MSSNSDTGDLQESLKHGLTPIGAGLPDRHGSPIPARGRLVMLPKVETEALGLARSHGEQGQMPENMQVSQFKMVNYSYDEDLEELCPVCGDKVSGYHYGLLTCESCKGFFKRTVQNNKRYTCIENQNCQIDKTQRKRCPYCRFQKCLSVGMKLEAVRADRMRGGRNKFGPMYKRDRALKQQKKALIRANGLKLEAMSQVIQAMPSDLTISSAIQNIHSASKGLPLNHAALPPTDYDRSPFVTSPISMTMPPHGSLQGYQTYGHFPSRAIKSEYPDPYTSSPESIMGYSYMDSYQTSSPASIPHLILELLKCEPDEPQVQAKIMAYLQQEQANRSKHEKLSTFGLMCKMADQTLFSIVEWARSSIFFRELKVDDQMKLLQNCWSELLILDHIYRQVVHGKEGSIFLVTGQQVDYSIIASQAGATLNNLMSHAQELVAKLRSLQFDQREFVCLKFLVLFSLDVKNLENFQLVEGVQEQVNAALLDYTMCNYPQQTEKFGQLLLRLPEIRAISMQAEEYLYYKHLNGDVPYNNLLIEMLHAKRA

Steroidogenic factor 1 = Steroidogenic factor 1 (Homo sapiens, UniProt Q13285); experiment: Counterscreen for inverse agonists of the liver receptor homolog-1 (LRH-1; NR5A2): Luminescence-based cell-based high throughput dose response assay to identify inverse agonists of the Steroidogenic Factor 1 Nuclear Receptor (SF1; NR5A1).; format: functional
Steroidogenic factor 1, sequence (Q13285 whole entry): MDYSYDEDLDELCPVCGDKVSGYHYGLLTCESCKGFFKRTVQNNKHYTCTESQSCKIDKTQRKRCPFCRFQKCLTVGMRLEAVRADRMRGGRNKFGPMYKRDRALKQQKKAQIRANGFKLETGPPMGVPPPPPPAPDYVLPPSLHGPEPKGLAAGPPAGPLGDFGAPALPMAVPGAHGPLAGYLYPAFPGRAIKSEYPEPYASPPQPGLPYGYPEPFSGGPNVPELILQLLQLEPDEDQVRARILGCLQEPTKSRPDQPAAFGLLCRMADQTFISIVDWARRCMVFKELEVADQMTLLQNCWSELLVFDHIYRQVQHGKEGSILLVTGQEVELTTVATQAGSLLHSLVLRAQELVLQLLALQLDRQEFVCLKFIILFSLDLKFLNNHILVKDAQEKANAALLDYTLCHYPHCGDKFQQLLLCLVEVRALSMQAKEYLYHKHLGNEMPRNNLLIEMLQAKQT

cells [7] = format: functional, cell-based
cells [8] = format: functional, cell-based; remark: listed apart in the source

Photoreceptor-specific nuclear receptor, sequence (Q9Y5X4 whole entry, the tested form may be a part): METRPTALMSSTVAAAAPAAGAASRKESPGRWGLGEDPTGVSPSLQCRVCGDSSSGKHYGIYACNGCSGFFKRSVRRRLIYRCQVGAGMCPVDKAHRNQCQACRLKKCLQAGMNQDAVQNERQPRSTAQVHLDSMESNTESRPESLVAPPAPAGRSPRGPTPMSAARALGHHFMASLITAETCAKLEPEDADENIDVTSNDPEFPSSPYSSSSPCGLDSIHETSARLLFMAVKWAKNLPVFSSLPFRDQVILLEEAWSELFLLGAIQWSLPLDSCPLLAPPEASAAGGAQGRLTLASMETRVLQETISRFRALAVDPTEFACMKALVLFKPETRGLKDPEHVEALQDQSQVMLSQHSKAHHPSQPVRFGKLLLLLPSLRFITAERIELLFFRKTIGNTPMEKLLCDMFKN

SMILES	IC50 [2]	EC50 [3]	IC50 [4]	IC50 [5]	further results
O=C(Nc1cccc(NC(=O)c2c(F)cccc2F)n1)c1c(F)cccc1F	–	–	–	–	IC50 [1]: 2.98 µM (active)
Cc1cc(C)cc(Nc2c(F)c(F)c(F)c(F)c2C(=O)O)c1	31.2 µM (active)	> 53 µM (inactive)	3.74 µM (active)	–	–
COc1ccc(NC(=O)CSc2sc3c(O)cc(O)nc3c2C#N)c(OC)c1	–	–	–	35.9 µM (inactive)	–
Cc1ccc(S(=O)(=O)N2c3ccccc3OCC2c2ccccc2)cc1 (stereo not drawn)	< 0.368 µM (active)	> 53 µM (inactive)	> 20 µM (inactive)	–	–
O=C(COC(=O)c1ccc(Br)cc1)Nc1ccccc1Br	–	–	–	35.9 µM (inactive)	IC50 [6]: 35.9 µM (inactive); IC50 (Steroidogenic factor 1): 35.9 µM (inactive)
O=C(N[C@H](C(=O)N1CCC[C@H]1C(=O)NCCc1ccccc1Cl)C1CCCCC1)c1cccs1	–	–	–	–	IC50 (cells [7]): > 29.9 µM (inactive); EC50 (cells [8]): > 29.9 µM (inactive)
